This test concerns the target human MER (528-end) (Homo sapiens (Human), UniProt Q12866). In words: HTRF Kinase Activity Biochemical Assay (KinEASE-TK). Conditions: 10 uM ATP. The method, then:
For the SAR (structure-activity relationship) and compound screening, HTRF (Homogeneous Time Resolved Fluorescence) kinase activity assay was employed for all MER, AXL and TYRO3 kinases using Cisbio HTRF® KinEASE™-TK kit (Cisbio, USA). The kit includes biotin-labeled TK substrate, streptavidin-XL665, Eu3+-cryptate-labeled TK antibody and HTRF® Detection buffer. There are two main steps in the kinase assay: kinase reaction and detection of phosphorylated substrate. The reaction was carried out in white low volume 384-well plate (Corning, USA) with 25 nL compound in dimethyl sulfoxide in each well. […] Then the reaction was stopped after 1 hour incubation at room temperature by adding 5 uL of HTRF® Detection buffer which also contains 0.375 nM Eu3+-cryptate-labeled TK antibody and 0.062 uM streptavidin-XL665(SA-XL665) to allow for detection of the phosphorylated peptide product. After 1 h incubation at room temperature, the fluorescence intensity was measured with Envision™ plate reader (PerkinElmer, USA). Upon excitation at 340 nm by UV, the energy from Eu3+ donor of the antibody is transferred to the FRET acceptor XL665, and […] emits light at 665 nm. The level of kinase activity was quantified by the HTRF ratio that calculated from the intensity of emission at 665 nm and emission at 620 nm (fluorescence intensity @ 665 nm/fluorescence intensity @ 620 nm×10,000). The recombinant protein of human MER (528-end) was purchased from Carnabio, Japan. The recombinant human AXL (473-end) and TYRO3 (455-end) were purchased from SignalChem, Canada.
In general terms: In TR-FRET formats the signal depends on donor and acceptor labels being close together.

SMILES strings stand for the structures.

Chain of human MER (528-end) (Q12866 528-999 limits assumed): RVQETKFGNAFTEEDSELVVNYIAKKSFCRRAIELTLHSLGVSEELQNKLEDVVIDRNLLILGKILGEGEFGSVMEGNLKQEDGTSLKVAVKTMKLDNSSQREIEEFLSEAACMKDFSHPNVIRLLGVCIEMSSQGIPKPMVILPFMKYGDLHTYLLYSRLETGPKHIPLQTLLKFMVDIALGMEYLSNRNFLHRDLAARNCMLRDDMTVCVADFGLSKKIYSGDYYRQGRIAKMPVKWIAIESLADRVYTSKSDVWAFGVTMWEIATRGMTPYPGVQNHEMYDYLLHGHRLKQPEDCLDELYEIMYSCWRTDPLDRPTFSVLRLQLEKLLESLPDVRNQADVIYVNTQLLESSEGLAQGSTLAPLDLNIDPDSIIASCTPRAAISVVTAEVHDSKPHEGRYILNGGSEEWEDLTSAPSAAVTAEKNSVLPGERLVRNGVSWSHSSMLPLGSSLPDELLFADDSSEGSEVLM

`Cn1cc(-c2cnc(N)c(C(=O)N[C@@H]3CCN(C(=O)Oc4ccc(Cl)cc4C4CCCCC4)C3)c2)cn1` [Example 75, 4-chloro-2-cyclohexylphenyl (R)-3-(2-amino-5-(1-methyl-1H-pyrazol-4-yl)nicotinamido)pyrrolidine-1-carboxylate]: the 50% inhibitory concentration (IC50) – broadly, the midpoint of a concentration-inhibition curve – was more than 1000 nM.

With `CC(=O)Nc1cccc(OC(=O)N2CC[C@@H](NC(=O)c3cc(-c4cnn(C)c4)cnc3N)C2)c1` [Example 76, 3-acetamidophenyl (R)-3-(2-amino-5-(1-methyl-1H-pyrazol-4-yl)nicotinamido)pyrrolidine-1-carboxylate], the IC50 is more than 1000 nM.

For `Cn1cc(-c2cnc(N)c(C(=O)N[C@@H]3CCN(C(=O)Oc4ccc(S(C)(=O)=O)cc4)C3)c2)cn1` [Example 77, 4-(methylsulfonyl)phenyl (R)-3-(2-amino-5-(1-methyl-1H-pyrazol-4-yl)nicotinamido)pyrrolidine-1-carboxylate], the IC50 is more than 1000 nM.

As to `CN(C)Cc1ccccc1OC(=O)N1CC[C@@H](NC(=O)c2cc(-c3cnn(C)c3)cnc2N)C1` [Example 78, 2-((dimethylamino)methyl)phenyl (R)-3-(2-amino-5-(1-methyl-1H-pyrazol-4-yl)nicotinamido)pyrrolidine-1-carboxylate], the IC50 is more than 1000 nM.

Turning to `Cn1cc(-c2cnc(N)c(C(=O)N[C@@H]3CCN(C(=O)OCc4ccccc4)C3)c2)cn1` [Example 80, benzyl (R)-3-(2-amino-5-(1-methyl-1H-pyrazol-4-yl)nicotinamido)pyrrolidine-1-carboxylate], the IC50 is more than 1000 nM.

Take `Nc1ncc(-c2ccc(CO)cc2)cc1C(=O)N[C@@H]1CCN(C(=O)Oc2cccc(-c3ccccc3)c2)C1` [Example 81, [1,1′-biphenyl]-3-yl (R)-3-(2-amino-5-(4-(hydroxymethyl)phenyl)nicotinamido)pyrrolidine-1-carboxylate]: the 50% inhibitory concentration (IC50) lay in the range of 100 to 1000 nM.

Regarding `Nc1ncc(-c2ccc(C(=O)N3CCOCC3)cc2)cc1C(=O)N[C@@H]1CCN(C(=O)Oc2cccc(-c3ccccc3)c2)C1` [Example 83, [1,1′-biphenyl]-3-yl (R)-3-(2-amino-5-(4-(morpholine-4-carbonyl)phenyl)nicotinamido)pyrrolidine-1-carboxylate], the IC50 fell in the range of 100 to 1000 nM.

Molecule `Nc1ncc(-c2ccc(F)c(F)c2)cc1C(=O)N[C@@H]1CCN(C(=O)Oc2cccc(-c3ccccc3)c2)C1` [Example 84, [1,1′-biphenyl]-3-yl (R)-3-(2-amino-5-(3,4-difluorophenyl)nicotinamido)pyrrolidine-1-carboxylate] came in with a 50% inhibitory concentration (IC50) of more than 1000 nM.

As for `Nc1ncc(Br)cc1C(=O)N[C@@H]1CCN(C(=O)Oc2cccc(-c3ccccc3)c2)C1` [Example 85, [1,1′-biphenyl]-3-yl (R)-3-(2-amino-5-bromonicotinamido)pyrrolidine-1-carboxylate], the half-inhibitory concentration (IC50) is more than 1000 nM.

As to `Cc1cc(OC(=O)N2CC[C@@H](NC(=O)c3cc(-c4cnn(C)c4)cnc3N)C2)ccc1Cl` [Example 86, 4-chloro-3-methylphenyl (R)-3-(2-amino-5-(1-methyl-1H-pyrazol-4-yl)nicotinamido)pyrrolidine-1-carboxylate], the half-inhibitory concentration (IC50) is more than 1000 nM.

In turn, `Cn1cc(-c2cnc(N)c(C(=O)N[C@@H]3CCN(C(=O)Oc4cccc(C#N)c4)C3)c2)cn1` [Example 87, 3-cyanophenyl (R)-3-(2-amino-5-(1-methyl-1H-pyrazol-4-yl)nicotinamido)pyrrolidine-1-carboxylate] registered an IC50 of more than 1000 nM.

As for `Cn1cc(-c2cnc(N)c(C(=O)N[C@@H]3CCN(C(=O)Oc4ccc(Cl)c(Cl)c4)C3)c2)cn1` [Example 88, 3,4-dichlorophenyl (R)-3-(2-amino-5-(1-methyl-1H-pyrazol-4-yl)nicotinamido)pyrrolidine-1-carboxylate], the IC50 was more than 1000 nM.

With `Cn1cc(-c2cnc(N)c(C(=O)N[C@@H]3CCN(C(=O)Oc4ccc(N)c(Cl)c4)C3)c2)cn1` [Example 89, 4-amino-3-chlorophenyl (R)-3-(2-amino-5-(1-methyl-1H-pyrazol-4-yl)nicotinamido)pyrrolidine-1-carboxylate], the half-inhibitory concentration (IC50) is more than 1000 nM.

The molecule `Cn1cc(-c2cnc(N)c(C(=O)N[C@@H]3CCN(C(=O)Oc4cc(F)cc(F)c4)C3)c2)cn1` [Example 90, 3,5-difluorophenyl (R)-3-(2-amino-5-(1-methyl-1H-pyrazol-4-yl)nicotinamido)pyrrolidine-1-carboxylate] gave an IC50 of more than 1000 nM.

For the molecule `Cc1cc(C)cc(OC(=O)N2CC[C@@H](NC(=O)c3cc(-c4cnn(C)c4)cnc3N)C2)c1` [Example 91, 3,5-dimethylphenyl (R)-3-(2-amino-5-(1-methyl-1H-pyrazol-4-yl)nicotinamido)pyrrolidine-1-carboxylate], the IC50 was more than 1000 nM.

Take `COC(=O)c1ccccc1OC(=O)N1CC[C@@H](NC(=O)c2cc(-c3cnn(C)c3)cnc2N)C1` [Example 92, 2-(methoxycarbonyl)phenyl (R)-3-(2-amino-5-(1-methyl-1H-pyrazol-4-yl)nicotinamido)pyrrolidine-1-carboxylate]: the IC50 is more than 1000 nM.

`CCc1ccc(OC(=O)N2CC[C@@H](NC(=O)c3cc(-c4cnn(C)c4)cnc3N)C2)cc1` [Example 93, 4-ethylphenyl (R)-3-(2-amino-5-(1-methyl-1H-pyrazol-4-yl)nicotinamido)pyrrolidine-1-carboxylate] had an IC50 of 100 to 1000 nM.

The molecule `Cc1ccc(OC(=O)N2CC[C@@H](NC(=O)c3cc(-c4cnn(C)c4)cnc3N)C2)cc1C` [Example 94, 3,4-dimethylphenyl (R)-3-(2-amino-5-(1-methyl-1H-pyrazol-4-yl)nicotinamido)pyrrolidine-1-carboxylate] returned an IC50 of more than 1000 nM.

In turn, `CN1CCC(n2cc(-c3cnc(N)c(C(=O)N[C@@H]4CCN(C(=O)Oc5cccc(-c6ccccc6)c5)C4)c3)cn2)CC1` [Example 96, [1,1′-biphenyl]-3-yl (R)-3-(2-amino-5-(1-(1-methylpiperidin-4-yl)-1H-pyrazol-4-yl)nicotinamido)pyrrolidine-1-carboxylate] returned an IC50 of 100 to 1000 nM.

Molecule `Cn1cc(-c2cnc(N)c(C(=O)N[C@@H]3CCN(C(=O)Oc4cc5ccccc5cc4O)C3)c2)cn1` [Example 97, 3-hydroxynaphthalen-2-yl (R)-3-(2-amino-5-(1-methyl-1H-pyrazol-4-yl)nicotinamido)pyrrolidine-1-carboxylate] gave an IC50 of more than 1000 nM.

For the molecule `Cn1cc(-c2cnc(N)c(C(=O)N[C@@H]3CCN(C(=O)Oc4ccccc4O)C3)c2)cn1` [Example 98, 2-hydroxyphenyl (R)-3-(2-amino-5-(1-methyl-1H-pyrazol-4-yl)nicotinamido)pyrrolidine-1-carboxylate], the IC50 is more than 1000 nM.

Molecule `Cn1cc(-c2cnc(N)c(C(=O)N[C@@H]3CCN(C(=O)Oc4ccc(Cl)cc4N)C3)c2)cn1` [Example 99, 2-amino-4-chlorophenyl (R)-3-(2-amino-5-(1-methyl-1H-pyrazol-4-yl)nicotinamido)pyrrolidine-1-carboxylate] came in with an IC50 of more than 1000 nM.

The molecule `Cn1cc(-c2cnc(N)c(C(=O)N[C@@H]3CCN(C(=O)Oc4cc([N+](=O)[O-])ccc4N)C3)c2)cn1` [Example 100, 2-amino-5-nitrophenyl (R)-3-(2-amino-5-(1-methyl-1H-pyrazol-4-yl)nicotinamido)pyrrolidine-1-carboxylate] displayed a 50% inhibitory concentration (IC50) of more than 1000 nM.

(Values after patent US12378224B2 (Dong-A Socio Holdings Co., Ltd., priority 2016, dated 2025).)
